Results reported in ChEMBL document CHEMBL1201862, “PubChem BioAssay data set” (2004).
Calls of active or inactive are those of the source.

What was measured:
[1] = target: T1, RNA-binding protein pos-1 (Caenorhabditis elegans, UniProt G5EF15); assay: inhibitors of POS-1/mex-3 RNA binding, dose response, biochemical, fluorescence polarization (AID 1964);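 also: purified POS-1 fused to maltose binding protein made in E. coli; potency of compounds blocking POS-1 binding to fluorescent RNA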
T1 sequence (G5EF15 whole entry): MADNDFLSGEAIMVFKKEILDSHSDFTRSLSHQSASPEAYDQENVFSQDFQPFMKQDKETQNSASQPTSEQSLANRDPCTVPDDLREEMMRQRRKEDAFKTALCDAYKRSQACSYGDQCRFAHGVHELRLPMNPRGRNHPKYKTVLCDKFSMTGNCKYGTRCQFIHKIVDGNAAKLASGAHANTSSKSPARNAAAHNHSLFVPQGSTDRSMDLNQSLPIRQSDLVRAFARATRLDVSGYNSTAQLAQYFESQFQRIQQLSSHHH

[2] = target: T2, Endoribonuclease toxin MazF (Escherichia coli K-12, UniProt P0AE70); assay: MazF toxin RNase activators, dose response, biochemical, fluorescence, single-stranded RNA substrate, uHTS hits (AID 588481); assay type: functional
T2 sequence (P0AE70 whole entry): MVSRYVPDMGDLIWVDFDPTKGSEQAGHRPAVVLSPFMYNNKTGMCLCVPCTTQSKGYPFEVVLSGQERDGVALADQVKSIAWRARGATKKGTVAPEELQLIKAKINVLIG

[3] = target: T2, Endoribonuclease toxin MazF; assay: fluorescent RNA oligo signal without MazF, dose response, counter-screen for MazEF activator project, biochemical, fluorescence, single-stranded RNase substrate (AID 588502); assay type: functional
[4] = target: T3, Zinc finger protein mex-5 (Caenorhabditis elegans, UniProt Q9XUB2); assay: MEX-5/TCR-2 RNA interaction inhibitors, dose response, biochemical, C. elegans, fluorescence polarization (AID 1960)
T3 sequence (Q9XUB2 whole entry): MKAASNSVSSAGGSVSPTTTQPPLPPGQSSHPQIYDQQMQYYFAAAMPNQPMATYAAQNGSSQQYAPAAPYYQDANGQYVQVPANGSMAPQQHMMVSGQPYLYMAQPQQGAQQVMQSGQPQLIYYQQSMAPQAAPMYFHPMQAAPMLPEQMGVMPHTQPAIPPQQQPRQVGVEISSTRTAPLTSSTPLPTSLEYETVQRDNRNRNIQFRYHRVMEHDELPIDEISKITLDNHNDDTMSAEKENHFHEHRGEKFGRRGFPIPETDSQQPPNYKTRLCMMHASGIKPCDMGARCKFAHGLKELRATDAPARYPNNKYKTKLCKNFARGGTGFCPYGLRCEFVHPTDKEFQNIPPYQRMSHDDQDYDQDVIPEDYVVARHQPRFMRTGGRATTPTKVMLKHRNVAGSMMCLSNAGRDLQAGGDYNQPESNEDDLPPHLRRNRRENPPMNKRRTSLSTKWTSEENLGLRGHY

[5] = target: T4, Corticotropin-releasing factor receptor 2/Corticotropin-releasing factor-binding protein (Homo sapiens, UniProt P24387+Q13324); assay: activators of CRF receptor 2 with binding protein – uHTS hits, confirmation (AID 602473); assay type: functional; conditions: read-out: EC50_Mean
T4 sequence (Q13324 whole entry): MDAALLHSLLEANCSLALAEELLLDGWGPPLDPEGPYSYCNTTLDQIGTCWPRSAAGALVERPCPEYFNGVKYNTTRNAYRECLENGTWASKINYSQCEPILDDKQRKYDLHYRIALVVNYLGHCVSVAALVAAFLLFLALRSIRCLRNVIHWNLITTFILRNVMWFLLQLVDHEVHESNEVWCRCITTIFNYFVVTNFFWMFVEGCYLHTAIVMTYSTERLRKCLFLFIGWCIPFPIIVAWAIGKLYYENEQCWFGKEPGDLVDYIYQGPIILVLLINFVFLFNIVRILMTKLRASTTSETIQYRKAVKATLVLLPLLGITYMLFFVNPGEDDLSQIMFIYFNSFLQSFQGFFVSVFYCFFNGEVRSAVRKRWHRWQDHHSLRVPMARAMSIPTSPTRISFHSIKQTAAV
T4 sequence (P24387 whole entry): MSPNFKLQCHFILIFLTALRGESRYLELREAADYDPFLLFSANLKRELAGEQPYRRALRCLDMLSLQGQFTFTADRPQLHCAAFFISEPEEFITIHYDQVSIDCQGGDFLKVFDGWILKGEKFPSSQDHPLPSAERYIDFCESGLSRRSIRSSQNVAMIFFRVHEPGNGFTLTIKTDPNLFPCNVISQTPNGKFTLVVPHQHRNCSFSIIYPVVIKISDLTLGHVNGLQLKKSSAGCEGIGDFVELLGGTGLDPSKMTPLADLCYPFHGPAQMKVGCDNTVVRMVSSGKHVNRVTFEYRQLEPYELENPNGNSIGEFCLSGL

[6] = target: Genome polyprotein (dengue virus type 2, UniProt P29990); assay: Dengue-2 NS5 methyltransferase inhibitors, primary screen, biochemical, confirmation dose response (AID 588689); assay type: functional
[7] = tested on: Streptococcus sp. 'group A'; assay: growth inhibition of control SK(-) GAS strain, dose response, counter-screen for streptokinase expression inhibitor project, luminescence, kanamycin, BacTiterGlo, confirmation (AID 1900); assay type: functional, organism-based
[8] = target: T5, Streptokinase A (Streptococcus pyogenes serotype M1, UniProt P10520); assay: S. pyogenes streptokinase expression inhibitors, potency, dose response, plasminogen activation absorbance, OD405 (AID 1914); assay type: functional, Streptococcus pyogenes M1 GAS;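 also: secreted streptokinase activity via plasminogen activation per viability signal from cell pellet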
T5 sequence (P10520 whole entry): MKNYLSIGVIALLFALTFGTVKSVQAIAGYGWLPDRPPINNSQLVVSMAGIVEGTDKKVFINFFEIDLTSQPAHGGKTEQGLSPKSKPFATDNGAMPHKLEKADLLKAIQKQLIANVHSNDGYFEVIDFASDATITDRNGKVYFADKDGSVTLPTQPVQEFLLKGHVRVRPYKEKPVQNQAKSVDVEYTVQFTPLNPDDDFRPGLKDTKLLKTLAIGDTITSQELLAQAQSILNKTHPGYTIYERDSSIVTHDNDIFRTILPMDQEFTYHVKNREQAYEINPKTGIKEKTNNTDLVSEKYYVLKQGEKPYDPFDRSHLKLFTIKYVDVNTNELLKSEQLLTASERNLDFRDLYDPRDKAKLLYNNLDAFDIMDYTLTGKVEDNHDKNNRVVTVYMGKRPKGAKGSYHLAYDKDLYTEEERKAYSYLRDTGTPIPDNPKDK

[9] = tested on: Streptococcus; assay: Group A Streptococcus viability loss, dose response, counter-screen for streptokinase expression inhibitor project, luminescence, BacTiterGlo (AID 1915); assay type: functional, organism-based;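 also: potency for reduction of bacterial viability or growth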
[10] = Shn3 3'UTR reporter inhibitors, dose response, cell-based, Clone20 osteoblasts, firefly luciferase, cherry-picked (AID 624132); assay type: functional;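 also: firefly luciferase luminescence from reporter carrying the Shn3 3'UTR in osteoblasts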
[11] = target: Glucose-6-phosphate 1-dehydrogenase (Homo sapiens, UniProt P11413); assay: human G6PD enzyme inhibitors, dose response, selectivity assay for P. falciparum G6PD inhibitor project, biochemical, fluorescence (AID 504792); assay type: functional
[12] = target: Beta-galactosidase (Escherichia coli, UniProt Q8VNN2); assay: PubChem AID 485352; assay type: functional
[13] = target: T6, Fatty acid synthase (Homo sapiens, UniProt P49327); assay: FAS thioesterase domain inhibitors, dose response, biochemical, endpoint fluorescence intensity, uHTS hits (AID 624327); assay type: functional;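 also: fluorescence from hydrolysis of an O-methyl fluorescein acyl ester substrate by the enzyme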
[14] = HepG2 cell cytotoxicity, dose response, cytotoxicity control for Shn3 inhibitor project, CellTiter-Glo, cherry-picked (AID 624134); assay type: functional, cell-based
[15] = control 3'UTR Renilla luciferase suppression, dose response, counter-screen for Shn3 inhibitor project, cell-based, Clone20-Shn3RL, cherry-picked (AID 624133); assay type: functional
[16] = target: T6, Fatty acid synthase; assay: FAS thioesterase domain inhibitors, dose response, biochemical, kinetic fluorescence intensity (AID 624326); assay type: functional;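 also: rate of fluorescence rise from hydrolysis of a fluorogenic O-methyl fluorescein ester substrate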
[17] = target: T7, Mannose-6-phosphate isomerase (Homo sapiens, UniProt P34949); assay: inhibitors of human PMI, primary screen, biochemical, fluorescence intensity, coupled assay (AID 1209)
T7 sequence (P34949 whole entry): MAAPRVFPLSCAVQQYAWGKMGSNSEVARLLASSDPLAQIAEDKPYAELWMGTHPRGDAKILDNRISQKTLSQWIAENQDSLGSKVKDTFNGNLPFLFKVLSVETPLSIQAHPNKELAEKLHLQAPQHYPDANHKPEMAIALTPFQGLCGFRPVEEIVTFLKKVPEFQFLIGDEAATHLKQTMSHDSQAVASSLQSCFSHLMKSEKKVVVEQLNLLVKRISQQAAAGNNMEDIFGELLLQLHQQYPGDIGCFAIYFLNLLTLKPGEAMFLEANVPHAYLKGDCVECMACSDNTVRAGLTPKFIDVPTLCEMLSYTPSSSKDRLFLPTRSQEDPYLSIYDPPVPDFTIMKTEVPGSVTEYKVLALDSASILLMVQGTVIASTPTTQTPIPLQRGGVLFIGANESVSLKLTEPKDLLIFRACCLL

[18] = target: T8, Type-1 angiotensin II receptor (Homo sapiens, UniProt P30556); assay: AT1 receptor antagonists, dose response, selectivity assay for APJ receptor antagonist project, cell-based, uHTS hits (AID 463214); assay type: functional;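 also: antagonist potency against angiotensin II stimulated AT1 response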
T8 sequence (P30556 whole entry): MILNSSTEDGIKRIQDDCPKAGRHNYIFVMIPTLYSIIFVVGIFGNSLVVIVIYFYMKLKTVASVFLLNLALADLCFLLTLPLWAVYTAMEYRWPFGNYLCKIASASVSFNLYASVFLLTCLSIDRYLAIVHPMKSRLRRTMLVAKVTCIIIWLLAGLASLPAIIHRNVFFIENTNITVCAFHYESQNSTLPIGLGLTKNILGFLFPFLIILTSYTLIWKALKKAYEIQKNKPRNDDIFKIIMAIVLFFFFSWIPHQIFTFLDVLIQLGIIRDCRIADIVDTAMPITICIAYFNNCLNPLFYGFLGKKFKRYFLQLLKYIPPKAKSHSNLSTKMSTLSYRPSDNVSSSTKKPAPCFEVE

[19] = tested on: Vero; assay: Vero cell cytotoxicity, cytotoxicity control for flavivirus capping enzyme inhibitors (AID 588742); assay type: functional; conditions: Chlorocebus sabaeus
[20] = MC4R antagonists, dose response, counter-screen for LGR2 antagonist project, cell-based, plate reader, cherry pick (AID 743444); assay type: functional;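 also: transfected HEK 293 cells stimulated with alpha-MSH peptide; potency of inhibitors of the alpha-MSH evoked signal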
[21] = LGR2 antagonists, dose response, cell-based, HEK293, CRE-luciferase reporter, cherry pick, set 2 (AID 743343); assay type: functional;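 also: transfected cells were stimulated with diluted bursicon conditioned medium after compound addition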
[22] = tested on: HEK293; assay: cells; assay type: functional, cell-based; conditions: Homo sapiens
[23] = target: T9, Nuclear receptor subfamily 0 group B member 1 (Homo sapiens, UniProt P51843); assay: Luminescence-based cell-based high throughput dose response assay for inhibitors of the orphan nuclear receptor subfamily 0, group B, member 1 (DAX1; NR0B1). [Related pubchem assays (depositor defined):AID504766, AID504790]; assay type: functional
T9 sequence (P51843 whole entry): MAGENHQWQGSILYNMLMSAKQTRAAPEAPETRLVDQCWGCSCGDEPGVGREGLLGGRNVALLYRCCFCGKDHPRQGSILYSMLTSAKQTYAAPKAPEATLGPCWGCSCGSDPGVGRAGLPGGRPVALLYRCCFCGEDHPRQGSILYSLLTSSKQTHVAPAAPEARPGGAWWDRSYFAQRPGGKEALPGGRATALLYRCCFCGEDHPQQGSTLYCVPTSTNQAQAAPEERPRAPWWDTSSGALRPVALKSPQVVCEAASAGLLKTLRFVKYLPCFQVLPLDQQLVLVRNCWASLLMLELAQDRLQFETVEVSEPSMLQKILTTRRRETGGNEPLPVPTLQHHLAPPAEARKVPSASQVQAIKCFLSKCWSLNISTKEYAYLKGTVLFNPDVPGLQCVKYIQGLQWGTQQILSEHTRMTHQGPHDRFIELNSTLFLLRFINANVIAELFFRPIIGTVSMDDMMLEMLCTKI

[24] = A549 cell cytotoxicity, dose response, cytotoxicity control, plate reader, cherry-pick, antagonist series (AID 743412); assay type: functional, cell-based
[25] = target: Cytochrome P450 2C9 (Homo sapiens, UniProt P11712)
Sequence of Cytochrome P450 2C9 (P11712 whole entry): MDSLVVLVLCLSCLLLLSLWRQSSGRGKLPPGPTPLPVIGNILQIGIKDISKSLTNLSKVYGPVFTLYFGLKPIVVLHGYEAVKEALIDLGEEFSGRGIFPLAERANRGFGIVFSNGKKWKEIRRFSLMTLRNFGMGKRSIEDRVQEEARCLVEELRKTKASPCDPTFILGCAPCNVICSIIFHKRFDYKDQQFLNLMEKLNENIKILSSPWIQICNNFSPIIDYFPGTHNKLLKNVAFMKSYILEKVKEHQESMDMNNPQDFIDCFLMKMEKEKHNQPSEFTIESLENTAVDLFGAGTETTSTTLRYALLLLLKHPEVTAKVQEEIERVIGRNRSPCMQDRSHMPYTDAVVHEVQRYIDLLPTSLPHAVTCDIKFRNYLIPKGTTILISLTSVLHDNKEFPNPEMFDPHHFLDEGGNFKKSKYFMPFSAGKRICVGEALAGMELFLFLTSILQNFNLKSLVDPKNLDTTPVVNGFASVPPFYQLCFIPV

Sequence of Beta-galactosidase (Q8VNN2 whole entry, the tested form may be a part): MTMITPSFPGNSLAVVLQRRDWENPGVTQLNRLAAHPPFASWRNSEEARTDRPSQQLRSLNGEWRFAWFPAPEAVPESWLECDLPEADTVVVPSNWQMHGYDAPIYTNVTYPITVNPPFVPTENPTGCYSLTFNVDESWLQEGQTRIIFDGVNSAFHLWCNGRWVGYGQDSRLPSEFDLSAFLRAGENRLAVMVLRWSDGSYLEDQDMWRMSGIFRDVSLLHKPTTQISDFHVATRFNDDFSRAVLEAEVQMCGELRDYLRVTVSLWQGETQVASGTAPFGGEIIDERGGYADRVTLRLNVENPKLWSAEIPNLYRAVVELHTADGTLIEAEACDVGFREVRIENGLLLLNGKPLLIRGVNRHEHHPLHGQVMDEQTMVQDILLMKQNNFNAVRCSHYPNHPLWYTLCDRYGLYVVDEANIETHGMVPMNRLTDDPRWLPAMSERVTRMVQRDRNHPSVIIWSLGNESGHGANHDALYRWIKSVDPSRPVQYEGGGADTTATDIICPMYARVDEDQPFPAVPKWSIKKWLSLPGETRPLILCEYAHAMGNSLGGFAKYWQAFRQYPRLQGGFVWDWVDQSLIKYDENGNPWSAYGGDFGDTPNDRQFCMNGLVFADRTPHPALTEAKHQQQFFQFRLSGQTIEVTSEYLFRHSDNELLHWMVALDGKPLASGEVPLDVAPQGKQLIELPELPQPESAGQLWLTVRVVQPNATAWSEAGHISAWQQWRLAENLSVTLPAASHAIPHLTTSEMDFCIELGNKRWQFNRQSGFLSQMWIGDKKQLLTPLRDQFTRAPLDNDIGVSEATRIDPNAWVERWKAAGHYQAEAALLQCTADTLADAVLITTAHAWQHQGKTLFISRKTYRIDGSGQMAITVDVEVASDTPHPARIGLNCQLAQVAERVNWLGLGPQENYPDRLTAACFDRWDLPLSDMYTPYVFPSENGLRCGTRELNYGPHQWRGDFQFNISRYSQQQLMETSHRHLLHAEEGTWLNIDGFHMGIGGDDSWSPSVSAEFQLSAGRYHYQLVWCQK
T6 sequence (P49327 whole entry, the tested form may be a part): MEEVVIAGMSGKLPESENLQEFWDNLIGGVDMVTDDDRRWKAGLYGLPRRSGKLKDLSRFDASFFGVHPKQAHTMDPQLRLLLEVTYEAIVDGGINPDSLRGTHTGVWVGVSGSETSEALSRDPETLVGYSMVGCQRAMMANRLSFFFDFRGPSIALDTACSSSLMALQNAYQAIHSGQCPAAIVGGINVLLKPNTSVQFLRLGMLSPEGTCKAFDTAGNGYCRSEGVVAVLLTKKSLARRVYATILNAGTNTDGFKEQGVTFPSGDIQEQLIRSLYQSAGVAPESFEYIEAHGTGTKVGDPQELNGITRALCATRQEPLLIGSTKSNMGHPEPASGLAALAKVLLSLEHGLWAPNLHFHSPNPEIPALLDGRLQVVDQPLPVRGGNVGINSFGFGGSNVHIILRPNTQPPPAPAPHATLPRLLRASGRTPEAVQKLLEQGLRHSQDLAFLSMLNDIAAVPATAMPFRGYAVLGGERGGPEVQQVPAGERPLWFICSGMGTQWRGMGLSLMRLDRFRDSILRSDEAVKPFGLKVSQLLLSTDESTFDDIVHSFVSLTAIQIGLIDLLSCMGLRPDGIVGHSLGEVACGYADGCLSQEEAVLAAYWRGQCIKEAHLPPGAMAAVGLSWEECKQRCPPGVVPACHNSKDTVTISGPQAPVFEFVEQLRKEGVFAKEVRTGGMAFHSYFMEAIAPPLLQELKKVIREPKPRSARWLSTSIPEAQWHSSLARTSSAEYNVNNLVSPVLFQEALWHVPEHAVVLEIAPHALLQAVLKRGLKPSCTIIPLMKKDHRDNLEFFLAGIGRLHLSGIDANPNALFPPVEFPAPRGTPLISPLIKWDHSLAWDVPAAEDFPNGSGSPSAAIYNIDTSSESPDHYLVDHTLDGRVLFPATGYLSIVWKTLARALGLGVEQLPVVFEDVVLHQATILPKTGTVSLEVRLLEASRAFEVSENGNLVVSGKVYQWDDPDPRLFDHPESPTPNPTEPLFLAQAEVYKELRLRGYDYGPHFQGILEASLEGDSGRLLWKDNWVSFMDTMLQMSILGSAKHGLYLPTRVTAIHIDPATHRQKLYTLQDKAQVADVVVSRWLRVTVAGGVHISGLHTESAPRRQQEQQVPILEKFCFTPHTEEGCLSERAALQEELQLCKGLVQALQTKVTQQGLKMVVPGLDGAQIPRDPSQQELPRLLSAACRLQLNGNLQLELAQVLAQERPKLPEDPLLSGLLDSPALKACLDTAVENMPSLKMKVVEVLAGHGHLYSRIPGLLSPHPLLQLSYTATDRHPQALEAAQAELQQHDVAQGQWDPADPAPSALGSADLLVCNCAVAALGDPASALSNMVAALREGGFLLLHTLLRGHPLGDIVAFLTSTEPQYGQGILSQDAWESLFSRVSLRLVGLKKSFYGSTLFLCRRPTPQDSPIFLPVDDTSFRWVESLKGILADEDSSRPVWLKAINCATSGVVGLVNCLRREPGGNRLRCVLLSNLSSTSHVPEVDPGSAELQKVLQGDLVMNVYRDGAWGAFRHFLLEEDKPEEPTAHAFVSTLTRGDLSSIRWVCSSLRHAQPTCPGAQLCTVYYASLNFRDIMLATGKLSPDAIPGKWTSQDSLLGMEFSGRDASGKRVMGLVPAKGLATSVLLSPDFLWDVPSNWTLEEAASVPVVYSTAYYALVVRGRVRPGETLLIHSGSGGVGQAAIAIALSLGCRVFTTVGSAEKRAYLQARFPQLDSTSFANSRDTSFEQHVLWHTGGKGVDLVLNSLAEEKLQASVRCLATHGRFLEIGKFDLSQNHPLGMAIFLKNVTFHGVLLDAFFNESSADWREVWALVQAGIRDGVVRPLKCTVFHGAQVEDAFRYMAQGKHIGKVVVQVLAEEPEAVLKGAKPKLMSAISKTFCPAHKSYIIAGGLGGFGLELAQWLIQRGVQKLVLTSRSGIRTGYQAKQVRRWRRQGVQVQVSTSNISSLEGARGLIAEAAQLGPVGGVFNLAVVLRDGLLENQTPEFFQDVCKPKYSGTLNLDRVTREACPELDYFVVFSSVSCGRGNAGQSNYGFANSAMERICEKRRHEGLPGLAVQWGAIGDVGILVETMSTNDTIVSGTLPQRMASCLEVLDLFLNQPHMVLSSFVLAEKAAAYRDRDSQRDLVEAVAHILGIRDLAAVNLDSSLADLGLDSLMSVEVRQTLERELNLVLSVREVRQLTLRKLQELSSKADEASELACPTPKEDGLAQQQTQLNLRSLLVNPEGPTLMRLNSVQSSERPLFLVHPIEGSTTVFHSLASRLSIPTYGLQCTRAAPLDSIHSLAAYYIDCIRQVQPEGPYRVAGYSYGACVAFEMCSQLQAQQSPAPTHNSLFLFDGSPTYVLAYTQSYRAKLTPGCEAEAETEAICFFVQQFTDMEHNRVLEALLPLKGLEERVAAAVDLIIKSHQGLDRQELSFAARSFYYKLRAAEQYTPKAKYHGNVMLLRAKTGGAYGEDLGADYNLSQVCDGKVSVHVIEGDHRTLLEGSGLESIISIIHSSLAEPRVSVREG
Sequence of Glucose-6-phosphate 1-dehydrogenase (P11413 whole entry): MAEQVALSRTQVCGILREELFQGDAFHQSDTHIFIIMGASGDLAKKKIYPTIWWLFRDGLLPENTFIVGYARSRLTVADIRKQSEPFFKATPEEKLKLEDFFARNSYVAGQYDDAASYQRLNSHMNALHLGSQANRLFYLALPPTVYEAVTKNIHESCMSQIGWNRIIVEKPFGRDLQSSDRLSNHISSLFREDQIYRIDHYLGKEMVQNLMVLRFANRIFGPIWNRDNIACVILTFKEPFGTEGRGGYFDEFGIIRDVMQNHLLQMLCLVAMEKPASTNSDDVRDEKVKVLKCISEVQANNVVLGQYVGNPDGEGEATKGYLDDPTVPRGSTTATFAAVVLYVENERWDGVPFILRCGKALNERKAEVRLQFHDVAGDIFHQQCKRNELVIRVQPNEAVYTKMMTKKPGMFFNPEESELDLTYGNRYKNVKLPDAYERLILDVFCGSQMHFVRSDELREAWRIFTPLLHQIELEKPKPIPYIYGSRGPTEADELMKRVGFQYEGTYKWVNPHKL

SMILES: NC(=O)c1c(NC(=O)c2ccccc2)sc2c1CCN(Cc1ccccc1)C2
- EC50 [1]: > 300 µM (not active)
- EC50 [2]: > 99 µM (inactive)
- EC50 [3]: > 99 µM (inactive)
- EC50 [4]: > 300 µM (inconclusive)
- EC50 [5]: 12.6 µM (active)

SMILES: O=[N+]([O-])c1c(NCCCO)cc(Sc2nc3ccccc3s2)c2nonc12
- IC50 [6]: 23 µM (active)
- EC50 [7]: 2.2 µM (active)
- EC50 [8]: 5.49 µM (active)
- EC50 [2]: > 99 µM (inactive)
- EC50 [3]: 44.1 µM (inactive)
- EC50 [9]: 3.07 µM (active)
- AC50 [10]: 1.58 µM (active)
- IC50 [11]: > 80 µM (inactive)
- EC50 [12]: > 40 µM (inactive)
- IC50 [13]: 2.37 µM (active)
- AC50 [14]: 26.2 µM (active)
- AC50 [15]: 8.01 µM (active)
- IC50 [16]: 1.95 µM (active)
- IC50 [17]: > 50 µM (not active)
- IC50 [18]: 2.05 µM (active)
- CC50 [19]: 26.2 µM (active)

SMILES: COC(=O)CSc1[nH]c2ccc(Br)cc2c1[N+](=O)[O-]
- EC50 [12]: > 40 µM (inactive)
- IC50 [18]: > 40 µM (not active)

SMILES: Nc1nccc(-c2cc(-c3ccc(Cl)cc3Cl)no2)n1
- AC50 [20]: 8.35 µM (active)
- AC50 [21]: 8.96 µM (active)
- IC50 [22]: > 67.6 µM (inactive)
- IC50 [23]: > 67.6 µM (inactive)
- AC50 [24]: > 52 µM (inactive)

SMILES: O=C(COC(=O)c1cccnc1)c1ccc(Cl)c(Cl)c1
- AC50 [25]: 7.94 µM (inconclusive)
- EC50 [12]: > 40 µM (inactive)
- IC50 [18]: 36.8 µM (not active)

SMILES: Cn1c(N)c(C(=O)COC(=O)CSc2ccccc2)c(=O)n(C)c1=O
- IC50 [22]: > 67.6 µM (inactive)
- IC50 [23]: > 67.6 µM (inactive)

SMILES: COc1ccc(OC)c(C(C)NC(=O)c2ccc(Br)cc2)c1 (centres undefined)
- IC50 [22]: > 67.6 µM (inactive)
- IC50 [23]: > 67.6 µM (inactive)

SMILES: Oc1[nH]c2ccccc2c1N=Nc1cccc(Cl)c1
- EC50 [1]: 125 µM (active)
- EC50 [2]: > 99 µM (inactive)
- EC50 [3]: > 99 µM (inactive)
- EC50 [4]: 45.4 µM (active)
